# According to patent US8835476B2, “Synthesis of novel antimicrobials” (priority 2005, dated 2014):
# Like-named read-outs stand apart in the source and are kept apart here.
# Legend:
# Type in all cases: cell-based
# P. rettgeri CAP = assay: Broth microdilution MIC, reference strains; settings: Providencia rettgeri; P. rettgeri (CAP in Table 1); read-out: MIC (growth inhibition, microdilution method)
# In short: (§1)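 Tested per NCCLS M7-A6 broth microdilution with an inoculum of 5×10^5 CFU/ml and DMSO controls matching solvent levels. Panels were incubated 16 to 20 hours at 35° C. in ambient air, and the MIC was taken as the lowest concentration inhibiting visible growth.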
# [1] = system: E. cloacae clinical isolates; assay: Broth microdilution MIC, clinical isolate strains (NAUTICA); settings: Table 4B; each table row is one clinical isolate; unit assumed
# In short: as §1
# [2] = system: S. maltophilia clinical isolates; assay: as above; settings: Table 4B; each table row is one clinical isolate; unit assumed
# In short: as §1
# [3] = system: P. vulgaris clinical isolates; assay: as above; settings: Table 4B; each table row is one clinical isolate; unit assumed
# In short: as §1
# [4] = system: E. coli clinical isolates; assay: as above; settings: Table 4B; each table row is one clinical isolate; unit assumed
# In short: as §1
# [5] = system: C. koseril clinical isolates; assay: as above; settings: Table 4B; each table row is one clinical isolate; unit assumed
# In short: as §1
# [6] = system: A. baumanii clinical isolates; assay: as above; settings: Table 4B; each table row is one clinical isolate; unit assumed
# In short: as §1
# [7] = system: P. stuartii clinical isolates; assay: as above; settings: Table 4B; each table row is one clinical isolate; unit assumed
# In short: as §1
# [8] = system: S. marcescens clinical isolates; assay: as above; settings: Table 4B; each table row is one clinical isolate; unit assumed
# In short: as §1
# [9] = system: K. pneumoniae clinical isolates; assay: as above; settings: Table 4B; each table row is one clinical isolate; unit assumed
# In short: as §1
# [10] = system: P. mirabilis clinical isolates; assay: as above; settings: Table 4B; each table row is one clinical isolate; unit assumed
# In short: as §1
# [11] = system: P. retgerri clinical isolates; assay: as above; settings: Table 4B; each table row is one clinical isolate; unit assumed
# In short: as §1
# [12] = system: C. freundii clinical isolates; assay: as above; settings: Table 4B; each table row is one clinical isolate; in µg/mL (unit assumed)
# In short: as §1
# [13] = system: B. cepacia clinical isolates; assay: as above; settings: Table 4B; each table row is one clinical isolate; unit assumed
# In short: as §1
# [14] = system: M. morganii clinical isolates; assay: as above; settings: Table 4B; each table row is one clinical isolate; unit assumed
# In short: as §1
# [15] = system: E. aerogenes clinical isolates; assay: as above; settings: Table 4B; each table row is one clinical isolate; unit assumed
# In short: as §1
# [16] = system: K. oxytoca clinical isolates; assay: as above; settings: Table 4B; each table row is one clinical isolate; unit assumed
# In short: as §1
# [17] = system: C. amalonaticus clinical isolates; assay: as above; settings: Table 4B; each table row is one clinical isolate; unit assumed
# In short: as §1
# [18] = system: S. liquifaciens clinical isolates; assay: as above; settings: Table 4B; each table row is one clinical isolate; unit assumed
# In short: as §1
# P. mirabilis ATCC 29245 = assay: Broth microdilution MIC, ATCC strains; settings: Proteus mirabilis, ATCC29245; P. mirabilis ATCC 29245; read-out: MIC (growth inhibition, microdilution method)
# In short: as §1
# MRSA ATCC 33591 = assay: Broth microdilution MIC, ATCC strains; settings: Staphylococcus aureus; MRSA ATCC 33591; read-out: MIC (growth inhibition, microdilution method)
# In short: as §1
# [19] = system: S. saprophyticus ATCC 15305; assay: Broth microdilution MIC, ATCC strains; settings: Staphylococcus saprophyticus, ATCC15305; S. saprophyticus ATCC 15305; read-out: MIC (growth inhibition, microdilution method)
# In short: as §1
# K. pneumoniae ATCC 13883 = assay: Broth microdilution MIC, ATCC strains; settings: Klebsiella pneumoniae, ATCC13883; K. pneumoniae ATCC 13883; read-out: MIC (growth inhibition, microdilution method)
# In short: as §1
# S. warneri ATCC 27836 = assay: Broth microdilution MIC, ATCC strains; settings: Staphylococcus warneri, ATCC27836; S. warneri ATCC 27836; read-out: MIC (growth inhibition, microdilution method)
# In short: as §1
# S. marcescens ATCC 8100 = assay: Broth microdilution MIC, ATCC strains; settings: Serratia marcescens, ATCC8100; S. marcescens ATCC 8100; read-out: MIC (growth inhibition, microdilution method)
# In short: as §1
# K. oxytoca ATCC 49131 = assay: Broth microdilution MIC, ATCC strains; settings: Klebsiella oxytoca, ATCC49131; K. oxytoca ATCC 49131; read-out: MIC (growth inhibition, microdilution method)
# In short: as §1
# E. faecalis ATCC 29212 = assay: Broth microdilution MIC, ATCC strains; settings: Enterococcus faecalis, read-out: MIC (growth inhibition, microdilution method)
# In short: as §1
# E. cloacae ATCC 23355 = assay: Broth microdilution MIC, ATCC strains; settings: Enterobacter cloacae, ATCC23355; E. cloacae ATCC 23355; read-out: MIC (growth inhibition, microdilution method)
# In short: as §1
# A. anitratus ATCC 19606 = assay: Broth microdilution MIC, ATCC strains; settings: Acinetobacter calcoaceticus, ATCC19606; A. anitratus ATCC 19606; read-out: MIC (growth inhibition, microdilution method)
# In short: as §1
# E. coli ATCC 25922 = assay: Broth microdilution MIC, ATCC strains; settings: Escherichia coli, ATCC25922, E. coli ATCC 25922; read-out: MIC (growth inhibition, microdilution method)
# In short: as §1
# [20] = ATCC29212, E. faecalis ATCC 29212
# [21] = ATCC29212, E. faecalis, ATCC number not given
SMILES,MIC (P. rettgeri CAP) [µg/mL],"MIC, E. CLOACAE [1] [µg/mL]","MIC, S. MALTOPHILIA [2] [µg/mL]","MIC, P. VULGARIS [3] [µg/mL]","MIC, E. COLI [4] [µg/mL]","MIC, C. KOSERI [5] [µg/mL]","MIC, A. BAUMANII [6] [µg/mL]","MIC, P. STUARTII [7] [µg/mL]","MIC, S. MARCESCENS [8] [µg/mL]","MIC, K. PNEUMONIAE [9] [µg/mL]","MIC, P. MIRABILIS [10] [µg/mL]","MIC, P. RETTGERI [11] [µg/mL]","MIC, C. FREUNDII [12]","MIC, B. CEPACIA [13] [µg/mL]","MIC, M. MORGANII [14] [µg/mL]","MIC, E. AEROGENES [15] [µg/mL]","MIC, K. OXYTOCA [16] [µg/mL]","MIC, C. AMALONATICUS [17] [µg/mL]","MIC, S. LIQUEFACIENS [18] [µg/mL]",MIC (P. mirabilis ATCC 29245) [µg/mL],other results
"O=C(O)c1sc(-c2ccc(F)cc2)cc1-c1nnn[nH]1 [DNM-141, 5-(4-Fluoro-phenyl)-3-(1H-tetrazol-5-yl)-thiophene-2-carboxylic acid]",> 16,> 16,> 16,> 16,> 16,> 16,> 16,> 16,> 16,> 16,> 16,> 16,>16,> 16,> 16,> 16,> 16,> 16,> 16,> 16,MIC (MRSA ATCC 33591): > 16 µg/mL; MIC [19]: > 16 µg/mL; MIC (K. pneumoniae ATCC 13883): > 16 µg/mL; MIC (S. warneri ATCC 27836): > 16 µg/mL; MIC (S. marcescens ATCC 8100): > 16 µg/mL; MIC (K. oxytoca ATCC 49131): > 16 µg/mL; MIC (E. faecalis ATCC 29212; [20]): > 16 µg/mL; MIC (E. faecalis ATCC 29212; [21]): > 16 µg/mL; MIC (E. cloacae ATCC 23355): > 16 µg/mL; MIC (A. anitratus ATCC 19606): > 16 µg/mL; MIC (E. coli ATCC 25922): > 16 µg/mL
"CCOC(=O)c1cc(-c2nnn(C)n2)c(-c2ccc(F)cc2)s1 [DNM-125, ethyl 5-(4-fluorophenyl)-4-(2-methyl-2H-tetrazol-5-yl)thiophene-2-carboxylate]",> 16,> 16,> 16,> 16,> 16,> 16,> 16,> 16,> 16,> 16,> 16,> 16,>16,> 16,> 16,> 16,> 16,> 16,> 16,> 16,MIC (MRSA ATCC 33591): > 16 µg/mL; MIC [19]: > 16 µg/mL; MIC (K. pneumoniae ATCC 13883): > 16 µg/mL; MIC (S. warneri ATCC 27836): > 16 µg/mL; MIC (S. marcescens ATCC 8100): > 16 µg/mL; MIC (K. oxytoca ATCC 49131): > 16 µg/mL; MIC (E. faecalis ATCC 29212; [20]): > 16 µg/mL; MIC (E. faecalis ATCC 29212; [21]): > 16 µg/mL; MIC (E. cloacae ATCC 23355): > 16 µg/mL; MIC (A. anitratus ATCC 19606): > 16 µg/mL; MIC (E. coli ATCC 25922): > 16 µg/mL
"Cn1nnc(-c2cc(-c3ccc(F)cc3)sc2C(=O)O)n1 [DNM-142, 5-(4-Fluoro-phenyl)-3-(2-methyl-2H-tetrazol-5-yl)-thiophene-2-carboxylic acid]",> 16,> 16,> 16,> 16,> 16,> 16,> 16,> 16,> 16,> 16,> 16,> 16,>16,> 16,> 16,> 16,> 16,> 16,> 16,> 16,MIC (MRSA ATCC 33591): > 16 µg/mL; MIC [19]: > 16 µg/mL; MIC (K. pneumoniae ATCC 13883): > 16 µg/mL; MIC (S. warneri ATCC 27836): > 16 µg/mL; MIC (S. marcescens ATCC 8100): > 16 µg/mL; MIC (K. oxytoca ATCC 49131): > 16 µg/mL; MIC (E. faecalis ATCC 29212; [20]): > 16 µg/mL; MIC (E. faecalis ATCC 29212; [21]): > 16 µg/mL; MIC (E. cloacae ATCC 23355): > 16 µg/mL; MIC (A. anitratus ATCC 19606): > 16 µg/mL; MIC (E. coli ATCC 25922): > 16 µg/mL
